The Kinase Knowledgebase extract (Sharma et al. 2016)

Molecular target: CDK2 (UniProt P24941)
Test: Enzyme Assay

IC50 [nM]	SMILES
100 to 1000	NS(=O)(=O)c1ccc(N/C=C2\C(=O)Nc3ncc(-c4ccsc4)cc32)cc1
100 to 1000	O=C1Nc2ncc(-c3ccsc3)cc2/C1=C/Nc1ccc2cn[nH]c2c1
10 to 100	O=C1Nc2ncc(Br)cc2/C1=C/Nc1ccc2ncccc2c1
10 to 100	NS(=O)(=O)c1ccc(N/C=C2\C(=O)Nc3cnccc32)cc1
10 to 100	NS(=O)(=O)c1ccc(N/C=C2\C(=O)Nc3ccncc32)cc1
10 to 100	NS(=O)(=O)c1ccc(N/C=C2\C(=O)Nc3ncc(Br)cc32)cc1
100 to 1000	NS(=O)(=O)c1ccc(N/C=C2\C(=O)Nc3nc(Cl)ccc32)cc1
10 to 100	O=C1Nc2ncc(Br)cc2/C1=C/Nc1ccc2cn[nH]c2c1
10 to 100	NS(=O)(=O)c1ccc(N/C=C2\C(=O)Nc3ncc(-c4ccco4)cc32)cc1
10 to 100	CCOC(=O)c1cnc2c(c1)/C(=C/Nc1ccc3cn[nH]c3c1)C(=O)N2
100 to 1000	NS(=O)(=O)c1ccc(N/C=C2\C(=O)Nc3ncccc32)cc1
1000 to 10000	NS(=O)(=O)c1ccc(N/C=C2\C(=O)Nc3ncc(-c4ccccc4)cc32)cc1
1000 to 10000	O=C1Nc2ncc(-c3ccco3)cc2/C1=C/Nc1ccc2cn[nH]c2c1
100 to 1000	O=C1Nc2nc(Cl)ccc2/C1=C/Nc1ccc2cn[nH]c2c1
100 to 1000	CCOC(=O)c1cnc2c(c1)/C(=C\Nc1ccc3ncccc3c1)C(=O)N2
10 to 100	CCOC(=O)c1cnc2c(c1)/C(=C/Nc1ccc(S(N)(=O)=O)cc1)C(=O)N2
